From ChEMBL document CHEMBL1201862, “PubChem BioAssay data set” (2004)
The source made the active and inactive calls. Unless noted, no cut-off for these calls is given here.

Key:
HEK293 = experiment: viability loss in HEK293T cells – cell-based, ATP luminescence, cherry-pick samples, cytotoxicity control, dose response (AID 687005); type: functional; details: Homo sapiens;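 note: cells exposed to compound for 48 hours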
[1] = HEK293 Cytotoxicity Assay Measured in Cell-Based System Using Plate Reader - 7071-01_Inhibitor_Dose_CherryPick_Activity_Set2.; type: functional
[2] = viability loss in HEK293 kidney cells – cell-based, cherry-picks, set 5, cytotoxicity control, dose response (AID 1053117); type: functional
[3] = blockers of FN fibrillogenesis by fibroblasts – AH1F cells, Alexa488-FN fluorescence, cherry-picks, dose response (AID 1035475); type: functional, cell-based
BJ [4] = experiment: cells; type: functional, cell-based; details: Homo sapiens
[5] = DRD fibroblast viability loss – cell-based, non-viral oncogenic, luminescence, dose response (AID 1934); type: functional; details: Homo sapiens
BJ [6] = experiment: BJ-TERT fibroblast viability loss – cell-based, RAS-independent, luminescence, dose response (AID 1933); type: functional; details: Homo sapiens
BJ [7] = experiment: BJ-TERT-LT-ST fibroblast viability loss – cell-based, RAS-independent, luminescence, dose response (AID 1935); type: functional; details: Homo sapiens;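 note: BJ fibroblasts immortalized with TERT plus LT and ST oncogenes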
[8] = toxicity toward HEK293 cells – cell-based, dry powder samples, cytotoxicity control, dose response (AID 720567); type: functional
[9] = viability loss in HEK293T cells – cell-based, CellTiter-Glo luminescence, dry powder, set 6, cytotoxicity control, dose response (AID 651949); type: functional; details: HEK293
[10] = viability of BHK-21 cells – cell-based, secondary screen, cytotoxicity control for flavivirus guanylyltransferase probe project (AID 624078); type: functional
[11] = biological target: Delta-type opioid receptor (Homo sapiens, UniProt P41143); experiment: Late-stage results from the probe development effort to identify antagonists of OPRK1: fluorescence-based cell-based dose response OPRD1 counterscreen, Set 2.; type: functional
Delta-type opioid receptor, sequence (P41143 whole entry): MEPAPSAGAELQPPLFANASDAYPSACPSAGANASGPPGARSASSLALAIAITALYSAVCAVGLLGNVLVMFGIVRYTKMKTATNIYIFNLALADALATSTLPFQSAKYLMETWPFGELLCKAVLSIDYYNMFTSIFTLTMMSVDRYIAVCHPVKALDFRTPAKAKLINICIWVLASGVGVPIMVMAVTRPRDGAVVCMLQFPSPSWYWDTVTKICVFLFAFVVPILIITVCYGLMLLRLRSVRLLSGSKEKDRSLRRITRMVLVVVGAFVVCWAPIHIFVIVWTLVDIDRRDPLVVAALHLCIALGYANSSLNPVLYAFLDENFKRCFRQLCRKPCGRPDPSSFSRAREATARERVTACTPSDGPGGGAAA

[12] = biological target: Kappa-type opioid receptor (Homo sapiens, UniProt P41145); experiment: Late-stage fluorescence-based cell-based dose response assay for antagonists of kappa opioid receptor 1 (OPRK1).; type: functional
Kappa-type opioid receptor, sequence (P41145 whole entry): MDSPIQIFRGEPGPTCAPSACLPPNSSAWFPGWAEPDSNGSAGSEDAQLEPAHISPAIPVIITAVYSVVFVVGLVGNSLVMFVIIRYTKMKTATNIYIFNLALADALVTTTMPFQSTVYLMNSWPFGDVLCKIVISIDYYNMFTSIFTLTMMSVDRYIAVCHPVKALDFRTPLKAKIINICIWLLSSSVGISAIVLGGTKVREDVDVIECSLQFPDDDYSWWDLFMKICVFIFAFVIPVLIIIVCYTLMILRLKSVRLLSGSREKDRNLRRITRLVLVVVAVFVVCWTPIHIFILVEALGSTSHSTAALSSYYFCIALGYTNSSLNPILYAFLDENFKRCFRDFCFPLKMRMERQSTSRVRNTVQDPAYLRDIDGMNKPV

Mu-type opioid receptor = Mu-type opioid receptor (Homo sapiens, UniProt P35372); experiment: Late-stage results from the probe development effort to identify antagonists of OPRK1: luminescence-based cell-based dose response OPRM1 counterscreen, Set 2.; type: functional
Mu-type opioid receptor, sequence (P35372 whole entry): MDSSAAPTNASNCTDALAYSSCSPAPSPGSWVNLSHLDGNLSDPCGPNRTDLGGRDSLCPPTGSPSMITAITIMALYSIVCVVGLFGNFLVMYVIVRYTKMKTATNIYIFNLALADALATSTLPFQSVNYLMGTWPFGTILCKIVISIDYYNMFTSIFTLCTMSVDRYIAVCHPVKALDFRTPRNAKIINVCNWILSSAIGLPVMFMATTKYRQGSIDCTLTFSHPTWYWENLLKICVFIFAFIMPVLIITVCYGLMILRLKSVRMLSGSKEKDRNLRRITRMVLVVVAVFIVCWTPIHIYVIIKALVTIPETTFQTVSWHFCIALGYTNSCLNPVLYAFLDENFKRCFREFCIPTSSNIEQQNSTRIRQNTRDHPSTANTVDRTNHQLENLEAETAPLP

[13] = biological target: Sphingosine 1-phosphate receptor 1 (Homo sapiens, UniProt P21453); experiment: Late-stage counterscreen for antagonists of kappa opioid receptor 1 (OPRK1): fluorescence-based cell-based dose response assay to identify antagonists of Sphingosine 1-Phosphate Receptor 1 (S1P1).; type: functional
Sphingosine 1-phosphate receptor 1, sequence (P21453 whole entry, the tested form may be a part): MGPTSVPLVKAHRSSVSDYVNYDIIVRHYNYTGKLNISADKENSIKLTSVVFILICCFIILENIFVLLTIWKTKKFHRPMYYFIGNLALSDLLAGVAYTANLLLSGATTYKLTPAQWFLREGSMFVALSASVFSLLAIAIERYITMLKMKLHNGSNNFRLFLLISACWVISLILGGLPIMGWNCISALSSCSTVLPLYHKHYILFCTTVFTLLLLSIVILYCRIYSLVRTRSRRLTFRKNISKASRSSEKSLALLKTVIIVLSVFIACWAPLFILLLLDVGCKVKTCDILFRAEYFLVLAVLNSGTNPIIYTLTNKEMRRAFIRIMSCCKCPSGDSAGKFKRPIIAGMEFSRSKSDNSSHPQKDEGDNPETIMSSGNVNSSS

[14] = biological target: Potassium channel subfamily K member 3 (Rattus norvegicus, UniProt O54912); experiment: SAR analysis for the identification of selective inhibitors of the two-pore domain potassium channel TASK1(KCNK3):Automated Electrophysiology.; type: functional
Potassium channel subfamily K member 3 (Rattus norvegicus, UniProt O54912), sequence (O54912 whole entry, the tested form may be a part): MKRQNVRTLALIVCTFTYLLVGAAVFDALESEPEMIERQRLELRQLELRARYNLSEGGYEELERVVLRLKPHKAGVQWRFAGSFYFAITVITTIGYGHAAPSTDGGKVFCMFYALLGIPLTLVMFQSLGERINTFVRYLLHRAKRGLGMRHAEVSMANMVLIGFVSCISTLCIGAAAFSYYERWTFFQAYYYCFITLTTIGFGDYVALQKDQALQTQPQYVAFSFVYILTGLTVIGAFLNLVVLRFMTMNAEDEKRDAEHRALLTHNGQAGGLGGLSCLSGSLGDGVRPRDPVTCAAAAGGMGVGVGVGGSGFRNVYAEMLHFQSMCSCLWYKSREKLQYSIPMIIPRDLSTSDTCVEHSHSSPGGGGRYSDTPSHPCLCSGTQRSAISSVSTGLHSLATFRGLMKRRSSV

[15] = biological target: T1, Potassium channel subfamily K member 9 (Homo sapiens, UniProt Q9NPC2); experiment: TASK3 channel blockers, electrophysiology – cell-based, automated electrophysiology, selectivity assay for TASK1 (KCNK3) inhibitor project, SAR follow-up (AID 652210); type: functional
T1 sequence (Q9NPC2 whole entry): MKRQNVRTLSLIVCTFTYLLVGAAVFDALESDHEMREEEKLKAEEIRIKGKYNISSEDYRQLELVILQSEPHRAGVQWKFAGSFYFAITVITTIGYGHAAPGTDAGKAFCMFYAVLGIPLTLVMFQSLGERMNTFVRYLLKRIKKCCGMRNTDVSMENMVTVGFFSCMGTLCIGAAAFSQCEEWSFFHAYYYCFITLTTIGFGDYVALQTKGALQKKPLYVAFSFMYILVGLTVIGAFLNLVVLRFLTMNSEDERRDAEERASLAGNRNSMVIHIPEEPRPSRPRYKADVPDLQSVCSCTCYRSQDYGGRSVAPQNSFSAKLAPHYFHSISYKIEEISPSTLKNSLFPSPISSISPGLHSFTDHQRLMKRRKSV

[16] = biological target: T1, Potassium channel subfamily K member 9; experiment: KCNK9 flux blockade, concentration-response – cell-based, FluxOR thallium flux, selectivity assay for TASK1 inhibitor project, SAR follow-up (AID 652211); type: functional;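 note: potency is for inhibitors of the channel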
[17] = biological target: Potassium channel subfamily K member 3 (Homo sapiens, UniProt O14649); experiment: inhibition of human KCNK3 channel flux – CHO cells, FluxOR thallium flux, SAR follow-up (AID 652212); type: functional
Potassium channel subfamily K member 3 (Homo sapiens, UniProt O14649), sequence (O14649 whole entry): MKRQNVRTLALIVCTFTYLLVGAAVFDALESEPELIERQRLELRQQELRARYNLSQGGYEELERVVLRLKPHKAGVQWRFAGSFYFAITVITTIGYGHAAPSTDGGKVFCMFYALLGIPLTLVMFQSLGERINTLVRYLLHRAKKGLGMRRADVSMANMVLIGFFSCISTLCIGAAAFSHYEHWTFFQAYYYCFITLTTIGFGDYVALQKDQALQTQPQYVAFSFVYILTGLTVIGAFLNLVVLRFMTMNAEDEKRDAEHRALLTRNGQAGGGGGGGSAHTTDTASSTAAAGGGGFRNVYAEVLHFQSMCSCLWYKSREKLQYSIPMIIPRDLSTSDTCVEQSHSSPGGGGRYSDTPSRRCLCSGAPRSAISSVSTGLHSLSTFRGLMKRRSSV

cells [18] = details: HEK293;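 note: cells exposed to compound for 48 hours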
cells [19] = details: A549
HeLa = experiment: ATP-based viability loss in HeLa cells – cell-based, CellTiter-Glo luminescence, cherry-pick samples, cytotoxicity control for MITF activator project, dose response (AID 540259); type: functional; details: Homo sapiens

**Q.** Which results are given for `COc1ccccc1CNC(=O)C[C@@H]1C[C@H]2c3cc(NC(=O)Nc4ccccc4F)ccc3O[C@H]2[C@@H](CO)O1`?
**A.** AC50 (HEK293): 26.6 µM (active); AC50 [1]: 26.6 µM (active)

**Q.** Which AC50 [2] does the source give for `N#Cc1ccc(-c2ccc3c(c2)[C@@H]2[C@@H](CCN2S(=O)(=O)c2cccc(F)c2)[C@H](CO)N3)cc1` here?
**A.** > 52 µM (inactive)

**Q.** What about the AC50 [3] of the same compound?
**A.** 1.18 µM (active)

**Q.** For `C/C(=N\NC(=O)c1c([N+](=O)[O-])c(C)nn1C)c1ccc(NC(=O)C2CCCC2)cc1`, which EC50 (BJ [4]) is on record?
**A.** 0.476 µM (active)

**Q.** What about the EC50 [5] of the same compound?
**A.** 0.605 µM (active)

**Q.** What about the EC50 (BJ [6]) of the same compound?
**A.** 1.02 µM (active)

**Q.** And the EC50 (BJ [7])?
**A.** 0.918 µM (inconclusive)

**Q.** What about the AC50 [8] of the same compound?
**A.** 12.8 µM (active)

**Q.** Which AC50 [9] does the source give for `COc1ccc(CSc2nnc(-c3ccccc3)o2)cc1` here?
**A.** > 52 µM (inactive)

**Q.** Which CC50 [10] does the source give for `COc1ccc(OC)c(S(=O)(=O)Nc2cc(SCC(=O)O)c(O)c3ccccc23)c1` here?
**A.** 9.6 µM (active)

**Q.** With `COc1ccc(OS(=O)(=O)c2sc(Br)cc2Br)cc1` as the compound, how does the IC50 [11] read?
**A.** 35.7 µM (inactive)

**Q.** And the IC50 [12]?
**A.** 16.9 µM (inactive)

**Q.** And the IC50 (Mu-type opioid receptor)?
**A.** > 50 µM (inactive)

**Q.** And the IC50 [13]?
**A.** > 50 µM (inactive)

**Q.** What does the source list for `CCOc1ccccc1NC(=O)c1cccc(NC(=O)c2ccccc2C(F)(F)F)c1`?
**A.** IC50 [14]: 0.006 µM (active); IC50 [15]: 0.52 µM (active); IC50 [16]: 0.32 µM (active); IC50 [17]: 0.03 µM (active)

**Q.** For `CC(C)(C)c1csc(N/N=C/c2ccc(O)cc2)n1`, which AC50 (cells [18]) is on record?
**A.** > 52 µM (inactive)

**Q.** What about the AC50 (cells [19]) of the same compound?
**A.** > 52 µM (inactive)

**Q.** What about the AC50 (HeLa) of the same compound?
**A.** 69.4 µM (active)
